# Laboratory results reported in PubChem BioAssay AID1963838 (Molecular Pharmacology Branch, DTP, NCI, 2024).
# Test system: 855422-203-R-J1-PDC complex spheroid viability
# Assay: Anticancer human tumor 855422-203-R-J1-PDC patient-derived bladder carcinoma cell line growth inhibition [POLQ]
# Details: for IC50: curve of first compound; for viability, T/C: stronger effect = lower value
# Method in brief: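 Growth inhibition in 3D: complex spheroids (tumor PDC, HUVEC, MSC) treated with POLQ inhibitor combinations; where Cmax unknown, highest tested concentration 10 microM, except SN-38 at 1 microM.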
# [1] = second compound 0.0316 µM, first compound 0.0316 µM
# [2] = second compound 0.0316 µM, first compound 0.1 µM
# [3] = second compound 0.0316 µM, first compound 0.316 µM
# [4] = second compound 0.0316 µM, first compound 1 µM
# [5] = second compound 0.0316 µM, first compound 3.16 µM
# [6] = second compound 0.0316 µM, first compound 10 µM
# [7] = second compound 0.1 µM, first compound 0.0316 µM
# [8] = second compound 0.1 µM, first compound 0.1 µM
# [9] = second compound 0.1 µM, first compound 0.316 µM
# [10] = second compound 0.1 µM, first compound 1 µM
# [11] = second compound 0.1 µM, first compound 3.16 µM
# [12] = second compound 0.1 µM, first compound 10 µM
# [13] = second compound 0.316 µM, first compound 0.0316 µM
# [14] = second compound 0.316 µM, first compound 0.1 µM
# [15] = second compound 0.316 µM, first compound 0.316 µM
# [16] = second compound 0.316 µM, first compound 1 µM
# [17] = second compound 0.316 µM, first compound 3.16 µM
# [18] = second compound 0.316 µM, first compound 10 µM
# [19] = second compound 1 µM, first compound 0.0316 µM
# [20] = second compound 1 µM, first compound 0.1 µM
# [21] = second compound 1 µM, first compound 0.316 µM
# [22] = second compound 1 µM, first compound 1 µM
# [23] = second compound 1 µM, first compound 3.16 µM
# [24] = second compound 1 µM, first compound 10 µM
# [25] = second compound 3.16 µM, first compound 0.0316 µM
# [26] = second compound 3.16 µM, first compound 0.1 µM
# [27] = second compound 3.16 µM, first compound 0.316 µM
# [28] = second compound 3.16 µM, first compound 1 µM
# [29] = second compound 3.16 µM, first compound 3.16 µM
# [30] = second compound 3.16 µM, first compound 10 µM
# [31] = second compound 10 µM, first compound 0.0316 µM
# [32] = second compound 10 µM, first compound 0.1 µM
# [33] = second compound 10 µM, first compound 0.316 µM
# [34] = second compound 10 µM, first compound 1 µM
# [35] = second compound 10 µM, first compound 3.16 µM
# [36] = second compound 10 µM, first compound 10 µM
# 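Also: spheroids exposed to compounds for seven days before readout.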
smiles,measurement,setting,value
O=c1[nH]cc(F)c(=O)[nH]1 + COC1C(OC(N)=O)C(O)C(Oc2ccc3c(O)c(NC(=O)c4ccc(O)c(CC=C(C)C)c4)c(=O)oc3c2C)OC1(C)C,IC50,second compound 0.0316 µM,0.463 µM
same,IC50,second compound 0.1 µM,0.403 µM
same,IC50,second compound 0.316 µM,0.37 µM
same,IC50,second compound 1 µM,0.489 µM
same,IC50,second compound 3.16 µM,0.518 µM
same,IC50,second compound 10 µM,0.431 µM
same,"viability, T/C",[1],101%
same,"viability, T/C",[2],119%
same,"viability, T/C",[3],59.9%
same,"viability, T/C",[4],40.1%
same,"viability, T/C",[5],25.9%
same,"viability, T/C",[6],23.6%
same,"viability, T/C",[7],107%
same,"viability, T/C",[8],107%
same,"viability, T/C",[9],55%
same,"viability, T/C",[10],34.5%
same,"viability, T/C",[11],28%
same,"viability, T/C",[12],22.3%
same,"viability, T/C",[13],107%
same,"viability, T/C",[14],114%
same,"viability, T/C",[15],53.5%
same,"viability, T/C",[16],35.1%
same,"viability, T/C",[17],26.3%
same,"viability, T/C",[18],23.6%
same,"viability, T/C",[19],118%
same,"viability, T/C",[20],100%
same,"viability, T/C",[21],59.2%
same,"viability, T/C",[22],34%
same,"viability, T/C",[23],26.7%
same,"viability, T/C",[24],21.5%
same,"viability, T/C",[25],98.8%
same,"viability, T/C",[26],93.4%
same,"viability, T/C",[27],58.4%
same,"viability, T/C",[28],37.5%
same,"viability, T/C",[29],28.2%
same,"viability, T/C",[30],22%
same,"viability, T/C",[31],117%
same,"viability, T/C",[32],101%
same,"viability, T/C",[33],54.7%
same,"viability, T/C",[34],35.3%
same,"viability, T/C",[35],26.2%
same,"viability, T/C",[36],23.4%
C=CCn1c(=O)c2cnc(Nc3ccc(N4CCN(C)CC4)cc3)nc2n1-c1cccc(C(C)(C)O)n1 + Cc1cccc(N(C)C(=O)C2C(O)CCN2c2nc(C)cc(C(F)(F)F)c2C#N)c1,IC50,second compound 0.0316 µM,> 1 µM
same,IC50,second compound 0.1 µM,> 1 µM
same,IC50,second compound 0.316 µM,> 1 µM
same,IC50,second compound 1 µM,> 1 µM
same,IC50,second compound 3.16 µM,> 1 µM
same,IC50,second compound 10 µM,> 1 µM
same,"viability, T/C","second compound 0.0316 µM, first compound 0.00316 µM",109%
same,"viability, T/C","second compound 0.0316 µM, first compound 0.01 µM",124%
same,"viability, T/C",[1],98%
same,"viability, T/C",[2],100%
same,"viability, T/C",[3],113%
same,"viability, T/C",[4],148%
same,"viability, T/C","second compound 0.1 µM, first compound 0.00316 µM",110%
same,"viability, T/C","second compound 0.1 µM, first compound 0.01 µM",122%
same,"viability, T/C",[7],93%
same,"viability, T/C",[8],99%
same,"viability, T/C",[9],124%
same,"viability, T/C",[10],175%
same,"viability, T/C","second compound 0.316 µM, first compound 0.00316 µM",102%
same,"viability, T/C","second compound 0.316 µM, first compound 0.01 µM",101%
same,"viability, T/C",[13],95.7%
same,"viability, T/C",[14],101%
same,"viability, T/C",[15],126%
same,"viability, T/C",[16],173%
same,"viability, T/C","second compound 1 µM, first compound 0.00316 µM",87.7%
same,"viability, T/C","second compound 1 µM, first compound 0.01 µM",112%
same,"viability, T/C",[19],91.1%
same,"viability, T/C",[20],118%
same,"viability, T/C",[21],124%
same,"viability, T/C",[22],165%
same,"viability, T/C","second compound 3.16 µM, first compound 0.00316 µM",91.4%
same,"viability, T/C","second compound 3.16 µM, first compound 0.01 µM",107%
same,"viability, T/C",[25],100%
same,"viability, T/C",[26],105%
same,"viability, T/C",[27],115%
same,"viability, T/C",[28],186%
same,"viability, T/C","second compound 10 µM, first compound 0.00316 µM",119%
same,"viability, T/C","second compound 10 µM, first compound 0.01 µM",105%
same,"viability, T/C",[31],115%
same,"viability, T/C",[32],137%
same,"viability, T/C",[33],208%
same,"viability, T/C",[34],123%
COc1ccc([C@@H](O)c2cc(-c3ncnc4cc(N5CCOCC5)ccc34)c(F)cc2Cl)nn1 + Nc1ccc(C#CCN(C(=O)Cc2ncc(C(F)(F)F)cc2C(F)(F)F)c2ccc(F)cc2)nn1,IC50,second compound 0.0316 µM,> 10 µM
same,IC50,second compound 0.1 µM,> 10 µM
same,IC50,second compound 0.316 µM,> 10 µM
same,IC50,second compound 1 µM,> 10 µM
same,IC50,second compound 3.16 µM,> 10 µM
same,IC50,second compound 10 µM,9.83 µM
same,"viability, T/C",[1],110%
same,"viability, T/C",[2],105%
same,"viability, T/C",[3],89%
same,"viability, T/C",[4],94.5%
same,"viability, T/C",[5],106%
same,"viability, T/C",[6],58.4%
same,"viability, T/C",[7],91.8%
same,"viability, T/C",[8],104%
same,"viability, T/C",[9],104%
same,"viability, T/C",[10],98.1%
same,"viability, T/C",[11],106%
same,"viability, T/C",[12],59.4%
same,"viability, T/C",[13],115%
same,"viability, T/C",[14],126%
same,"viability, T/C",[15],86.4%
same,"viability, T/C",[16],98.5%
same,"viability, T/C",[17],110%
same,"viability, T/C",[18],54.3%
same,"viability, T/C",[19],99.8%
same,"viability, T/C",[20],96.8%
same,"viability, T/C",[21],93.4%
same,"viability, T/C",[22],104%
same,"viability, T/C",[23],111%
same,"viability, T/C",[24],51%
same,"viability, T/C",[25],94.6%
same,"viability, T/C",[26],105%
same,"viability, T/C",[27],87.5%
same,"viability, T/C",[28],94.2%
same,"viability, T/C",[29],90.7%
same,"viability, T/C",[30],57.4%
same,"viability, T/C",[31],92.3%
same,"viability, T/C",[32],92.5%
same,"viability, T/C",[33],98.3%
same,"viability, T/C",[34],86.2%
same,"viability, T/C",[35],98.6%
same,"viability, T/C",[36],49.3%
O=C(c1cc(Cc2n[nH]c(=O)c3ccccc23)ccc1F)N1CCN(C(=O)C2CC2)CC1 + Cc1cccc(N(C)C(=O)C2C(O)CCN2c2nc(C)cc(C(F)(F)F)c2C#N)c1,IC50,second compound 0.0316 µM,> 10 µM
same,IC50,second compound 0.1 µM,> 10 µM
same,IC50,second compound 0.316 µM,> 10 µM
same,IC50,second compound 1 µM,> 10 µM
same,IC50,second compound 3.16 µM,> 10 µM
same,IC50,second compound 10 µM,> 10 µM
same,"viability, T/C",[1],117%
same,"viability, T/C",[2],114%
same,"viability, T/C",[3],117%
same,"viability, T/C",[4],107%
same,"viability, T/C",[5],101%
same,"viability, T/C",[6],80.1%
same,"viability, T/C",[7],111%
same,"viability, T/C",[8],103%
same,"viability, T/C",[9],108%
same,"viability, T/C",[10],109%
same,"viability, T/C",[11],101%
same,"viability, T/C",[12],75.3%
same,"viability, T/C",[13],105%
same,"viability, T/C",[14],95%
same,"viability, T/C",[15],110%
same,"viability, T/C",[16],111%
same,"viability, T/C",[17],103%
same,"viability, T/C",[18],76.8%
same,"viability, T/C",[19],104%
same,"viability, T/C",[20],108%
same,"viability, T/C",[21],111%
same,"viability, T/C",[22],107%
same,"viability, T/C",[23],106%
same,"viability, T/C",[24],81.2%
same,"viability, T/C",[25],93.8%
same,"viability, T/C",[26],103%
same,"viability, T/C",[27],120%
same,"viability, T/C",[28],103%
same,"viability, T/C",[29],105%
same,"viability, T/C",[30],66.9%
same,"viability, T/C",[31],109%
same,"viability, T/C",[32],113%
same,"viability, T/C",[33],114%
same,"viability, T/C",[34],106%
same,"viability, T/C",[35],96.7%
same,"viability, T/C",[36],65.1%
